# Activity calls are given as the source filed them. The rule behind the calls is not given here.
# Tested on: Trypanosoma cruzi
# Experiment: Induction of mitochondrial membrane hyperpolarization in Trypanosoma cruzi Y trypomastigotes after 1 hr by rhodamine123/propidium iodide staining-based flow cytometric analysis
# Format: functional, organism-based
# Conditions: not given
row,SMILES,Activity
1,CCCCCCCCCCCCCC(=O)c1c(O)cc(C)oc1=O,Dose-dependent effect

# Tested on: Trypanosoma cruzi
# Experiment: Antitrypanosomal activity against Trypanosoma cruzi Y infected in BALB/c mouse assessed as reduction in blood parasitemia at 30 mg/kg/day, ip dosed administered for 10 consecutive days starting on day 5 post infection measured on day 14 post infection relative to control
# Format: functional
# Set-up: scale not given: the % may be the effect or the level left
# Conditions: not given
row,SMILES,Activity [%]
1,CCCCCCCCCCCCCC(=O)c1c(O)cc(C)oc1=O,55

# Tested on: Mus musculus
# Experiment: Hepatotoxicity in BALB/c mouse infected with Trypanosoma cruzi Y assessed as hydropic degeneration of hepatocytes at 30 mg/kg/day, ip dosed for 10 consecutive days by hematoxylin and eosin staining-based light microscopic analysis
# Format: toxicity, organism-based
# Conditions: in vivo
row,SMILES,Activity
1,CCCCCCCCCCCCCC(=O)c1c(O)cc(C)oc1=O,Non-Toxic

# Tested on: Trypanosoma cruzi
# Experiment: Potency index, ratio of benznidazole IC50 to test compound IC50 for Trypanosoma cruzi Y trypomastigotes
# Format: functional
# Conditions: not given
row,SMILES,Ratio IC50
1,CCCCCCCCCCCCCC(=O)c1c(O)cc(C)oc1=O,6

# Tested on: Trypanosoma cruzi
# Experiment: Antitrypanosomal activity against Trypanosoma cruzi Y infected in BALB/c mouse assessed as reduction in blood parasitemia at 100 mg/kg, po administered every day starting on day 5 post infection measured on day 8 post infection
# Format: functional
# Set-up: scale not given: the % may be the effect or the level left
# Conditions: not given
row,SMILES,Activity [%]
1,O=C(Cn1ccnc1[N+](=O)[O-])NCc1ccccc1 [BENZNIDAZOLE],100

# Tested on: Trypanosoma cruzi
# Experiment: Antitrypanosomal activity against Trypanosoma cruzi Y trypomastigotes assessed as parasite viability up to 200 uM after 24 hrs by resazurin staining-based hemocytometric analysis
# Format: functional, organism-based
# Conditions: not given
row,SMILES,Activity
1,CCCCCCCCCCCCCCNC(=O)c1c(O)cc(C)oc1=O,inactive
2,Cc1cc(O)c(C(=O)NCc2ccccc2)c(=O)o1,inactive
3,CCCCCCCCCCc1c(O)cc(C)oc1=O,inactive
4,Cc1cc(O)c(C(=O)Nc2ccccc2)c(=O)o1,inactive
5,Cc1cc(O)c(CC2CCCCC2)c(=O)o1,inactive
6,CCCCCCc1c(O)cc(C)oc1=O,inactive
7,CCCCCC(=O)c1c(O)cc(C)oc1=O,inactive
8,Cc1cc(O)c(C(=O)Nc2ccc(OCc3ccccc3)cc2)c(=O)o1,inactive
9,Cc1cc(O)c(C(=O)NCCc2ccccc2)c(=O)o1,inactive
10,Cc1cc(O)c(C(=S)Nc2ccccc2)c(=O)o1,inactive
11,Cc1cc(O)c(C(=O)Nc2ccc3c(c2)OCO3)c(=O)o1,inactive
12,Cc1cc(O)c(C(=O)C2CCCCC2)c(=O)o1,inactive

# Tested on: Mus musculus
# Experiment: Toxicity in BALB/c mouse infected with Trypanosoma cruzi Y assessed as mortality at 100 mg/kg/day, po administered for 10 consecutive days starting on day 5 post infection measured during compound dosing
# Format: organism-based
# Conditions: in vivo
row,SMILES,Activity
1,O=C(Cn1ccnc1[N+](=O)[O-])NCc1ccccc1 [BENZNIDAZOLE],Non-Toxic

# Tested on: Trypanosoma cruzi
# Experiment: Antitrypanosomal activity against Trypanosoma cruzi Y intracellular amastigotes infected in BALB/c mouse peritoneal macrophages at 25 uM after 48 hrs by Giemsa staining-based light microscopic analysis
# Format: functional
# Conditions: not given
row,SMILES,Activity [%]
1,CCCCCCCCCCCCCC(=O)c1c(O)cc(C)oc1=O,14

# Tested on: Leishmania infantum
# Experiment: Antileishmanial activity against Leishmania infantum MHOM/BR/1972/LD promastigotes assessed as parasite viability up to 200 uM after 48 hrs by MTT assay
# Format: functional, organism-based
# Conditions: not given
row,SMILES,Activity
1,CCCCCCCCCCCCCCNC(=O)c1c(O)cc(C)oc1=O,inactive
2,Cc1cc(O)c(C(=O)NCc2ccccc2)c(=O)o1,inactive
3,Cc1cc(O)c(C(=O)Nc2ccccc2)c(=O)o1,inactive
4,Cc1cc(O)c(CC2CCCCC2)c(=O)o1,inactive
5,CCCCCCc1c(O)cc(C)oc1=O,inactive
6,CCCCCC(=O)c1c(O)cc(C)oc1=O,inactive
7,CCCCCCCCCCCCCC(=O)c1c(O)cc(C)oc1=O,inactive
8,Cc1cc(O)c(C(=O)Nc2ccc(OCc3ccccc3)cc2)c(=O)o1,inactive
9,Cc1cc(O)c(C(=O)NCCc2ccccc2)c(=O)o1,inactive
10,Cc1cc(O)c(C(=S)Nc2ccccc2)c(=O)o1,inactive
11,Cc1cc(O)c(C(=O)Nc2ccc3c(c2)OCO3)c(=O)o1,inactive
12,Cc1cc(O)c(C(=O)C2CCCCC2)c(=O)o1,inactive

# Tested on: Trypanosoma cruzi
# Experiment: Induction of plasma membrane permeabilization in Trypanosoma cruzi Y trypomastigotes at IC50 to IC90 measured every 1 hr up to 7 hrs by Sytox Green staining-based fluorimetric analysis
# Format: functional, organism-based
# Conditions: not given
row,SMILES,Activity
1,CCCCCCCCCCCCCC(=O)c1c(O)cc(C)oc1=O,inactive

# Tested on: Trypanosoma cruzi
# Experiment: Antitrypanosomal activity against Trypanosoma cruzi Y trypomastigotes assessed as parasite viability after 24 hrs by resazurin staining-based hemocytometric analysis
# Format: functional, organism-based
# Conditions: not given
row,SMILES,IC50 [µM]
1,CCCCCCCCCCCCCC(=O)c1c(O)cc(C)oc1=O,2.6
2,O=C(Cn1ccnc1[N+](=O)[O-])NCc1ccccc1 [BENZNIDAZOLE],16.2

# Tested on: Trypanosoma cruzi
# Experiment: Induction of mitochondrial membrane hyperpolarization in Trypanosoma cruzi Y trypomastigotes assessed as increase in fluorescence at IC90 after 2 hrs by rhodamine123/propidium iodide staining-based flow cytometric analysis relative to control
# Format: functional
# Conditions: not given
row,SMILES,Activity [%]
1,CCCCCCCCCCCCCC(=O)c1c(O)cc(C)oc1=O,26

# Tested on: L929
# Experiment: Cytotoxicity against mouse NCTC-929 cells after 72 hrs by MTT assay
# Format: cell-based
# Conditions: L929, 72 h
row,SMILES,IC50 [µM]
1,CCCCCCCCCCCCCCNC(=O)c1c(O)cc(C)oc1=O,> 200
2,Cc1cc(O)c(C(=O)NCc2ccccc2)c(=O)o1,> 200
3,CCCCCCCCCCc1c(O)cc(C)oc1=O,56
4,Cc1cc(O)c(C(=O)Nc2ccccc2)c(=O)o1,> 200
5,Cc1cc(O)c(CC2CCCCC2)c(=O)o1,> 200
6,CCCCCCc1c(O)cc(C)oc1=O,> 200
7,CCCCCC(=O)c1c(O)cc(C)oc1=O,> 200
8,CCCCCCCCCCCCCC(=O)c1c(O)cc(C)oc1=O,> 200
9,O=C(Cn1ccnc1[N+](=O)[O-])NCc1ccccc1 [BENZNIDAZOLE],> 200
10,Cc1cc(O)c(C(=O)Nc2ccc(OCc3ccccc3)cc2)c(=O)o1,> 200
11,Cc1cc(O)c(C(=O)NCCc2ccccc2)c(=O)o1,178
12,Cc1cc(O)c(C(=S)Nc2ccccc2)c(=O)o1,> 200
13,Cc1cc(O)c(C(=O)Nc2ccc3c(c2)OCO3)c(=O)o1,> 200
14,Cc1cc(O)c(C(=O)C2CCCCC2)c(=O)o1,> 200

# Tested on: Leishmania infantum
# Experiment: Antileishmanial activity against Leishmania infantum MHOM/BR/1972/LD amastigotes infected in BALB/c mouse peritoneal macrophages assessed as parasite viability after 72 hrs by Giemsa staining-based light microscopic analysis
# Format: functional, organism-based
# Conditions: not given
row,SMILES,IC50 [µM]
1,Cc1cc(O)c(C(=O)NCc2ccccc2)c(=O)o1,52.8
2,CCCCCC(=O)c1c(O)cc(C)oc1=O,13.8
3,Cc1cc(O)c(C(=O)NCCc2ccccc2)c(=O)o1,46.8
4,Cc1cc(O)c(C(=S)Nc2ccccc2)c(=O)o1,> 100

# Tested on: Leishmania infantum
# Experiment: Antileishmanial activity against Leishmania infantum MHOM/BR/1972/LD promastigotes assessed as parasite viability after 48 hrs by MTT assay
# Format: functional, organism-based
# Conditions: not given
row,SMILES,IC50 [µM]
1,CCCCCCCCCCc1c(O)cc(C)oc1=O,118

# Tested on: Leishmania infantum
# Experiment: Antileishmanial activity against Leishmania infantum MHOM/BR/1972/LD amastigotes infected in BALB/c mouse peritoneal macrophages assessed as parasite viability up to 200 uM after 72 hrs by Giemsa staining-based light microscopic analysis
# Format: functional, organism-based
# Conditions: not given
row,SMILES,Activity
1,CCCCCCCCCCCCCCNC(=O)c1c(O)cc(C)oc1=O,inactive
2,CCCCCCCCCCc1c(O)cc(C)oc1=O,inactive
3,Cc1cc(O)c(C(=O)Nc2ccccc2)c(=O)o1,inactive
4,Cc1cc(O)c(CC2CCCCC2)c(=O)o1,inactive
5,CCCCCCc1c(O)cc(C)oc1=O,inactive
6,CCCCCCCCCCCCCC(=O)c1c(O)cc(C)oc1=O,inactive
7,Cc1cc(O)c(C(=O)Nc2ccc(OCc3ccccc3)cc2)c(=O)o1,inactive
8,Cc1cc(O)c(C(=O)Nc2ccc3c(c2)OCO3)c(=O)o1,inactive
9,Cc1cc(O)c(C(=O)C2CCCCC2)c(=O)o1,inactive

# Tested on: Trypanosoma cruzi
# Experiment: Antitrypanosomal activity against Trypanosoma cruzi Y infected in BALB/c mouse assessed as reduction in blood parasitemia at 30 mg/kg, ip administered every day starting on day 5 post infection measured on day 8 post infection
# Format: functional, organism-based
# Conditions: not given
row,SMILES,Activity
1,CCCCCCCCCCCCCC(=O)c1c(O)cc(C)oc1=O,inactive

# Tested on: Trypanosoma cruzi
# Experiment: Antitrypanosomal activity against Trypanosoma cruzi Y infected in BALB/c mouse assessed as reduction in blood parasitemia at 100 mg/kg/day, […] dosed administered for 10 consecutive days starting on day 5 post infection measured on day 14 post infection relative to control
# Format: functional
# Set-up: scale not given: the % may be the effect or the level left
# Conditions: not given
row,SMILES,Activity [%]
1,O=C(Cn1ccnc1[N+](=O)[O-])NCc1ccccc1 [BENZNIDAZOLE],100

# Tested on: Mus musculus
# Experiment: Toxicity in BALB/c mouse infected with Trypanosoma cruzi Y assessed as mortality at 30 mg/kg/day, ip administered for 10 consecutive days starting on day 5 post infection measured during compound dosing
# Format: organism-based
# Conditions: in vivo
row,SMILES,Activity
1,CCCCCCCCCCCCCC(=O)c1c(O)cc(C)oc1=O,Non-Toxic

# Tested on: Trypanosoma cruzi
# Experiment: Induction of mitochondrial membrane hyperpolarization in Trypanosoma cruzi Y trypomastigotes assessed as increase in fluorescence at IC50 after 2 hrs by rhodamine123/propidium iodide staining-based flow cytometric analysis relative to control
# Format: functional
# Conditions: not given
row,SMILES,Activity [%]
1,CCCCCCCCCCCCCC(=O)c1c(O)cc(C)oc1=O,25

# Tested on: not listed separately
# Experiment: Selectivity index, ratio of IC50 for mouse NCTC-929 cells to IC50 for Trypanosoma cruzi Y trypomastigotes
# Format: toxicity
# Conditions: NCTC-929 cells versus Trypanosoma cruzi Y trypomastigotes, read-out: Ratio IC50
row,SMILES,selectivity ratio
1,CCCCCCCCCCCCCC(=O)c1c(O)cc(C)oc1=O,> 77.5
2,O=C(Cn1ccnc1[N+](=O)[O-])NCc1ccccc1 [BENZNIDAZOLE],> 36

# Tested on: not listed separately
# Experiment: Selectivity index, ratio of IC50 for mouse NCTC-929 cells to IC50 for Leishmania infantum MHOM/BR/1972/LD amastigotes infected in BALB/C mouse peritoneal macrophages
# Format: toxicity
# Conditions: read-out: Ratio IC50
row,SMILES,selectivity ratio
1,Cc1cc(O)c(C(=O)NCc2ccccc2)c(=O)o1,5
2,CCCCCC(=O)c1c(O)cc(C)oc1=O,> 14.5
3,Cc1cc(O)c(C(=O)NCCc2ccccc2)c(=O)o1,3.8
